Reference: ChEMBL document CHEMBL1125066, “Phosphoramidate peptide inhibitors of human skin fibroblast collagenase” (J Med Chem, 1990)
Square brackets hold non-standard residues; d marks the D form. Peptide text beside a SMILES is read from it. * marks the point of attachment. Arg(NO2) = N=C(NCCC[C@H](N)C(=O)O)N[N+](=O)[O-]; X1 = CCOP(=O)(O)N[C@H](C(=O)*)[C@@H](C)CC

Experiments:
Interstitial collagenase [1] = target: T1, Interstitial collagenase (Homo sapiens, UniProt P03956); assay: Assayed against human skin fibroblast Collagenase using the spectrophotometric assay with the thiol ester substrate at pH 6.5.
T1 sequence (P03956 whole entry): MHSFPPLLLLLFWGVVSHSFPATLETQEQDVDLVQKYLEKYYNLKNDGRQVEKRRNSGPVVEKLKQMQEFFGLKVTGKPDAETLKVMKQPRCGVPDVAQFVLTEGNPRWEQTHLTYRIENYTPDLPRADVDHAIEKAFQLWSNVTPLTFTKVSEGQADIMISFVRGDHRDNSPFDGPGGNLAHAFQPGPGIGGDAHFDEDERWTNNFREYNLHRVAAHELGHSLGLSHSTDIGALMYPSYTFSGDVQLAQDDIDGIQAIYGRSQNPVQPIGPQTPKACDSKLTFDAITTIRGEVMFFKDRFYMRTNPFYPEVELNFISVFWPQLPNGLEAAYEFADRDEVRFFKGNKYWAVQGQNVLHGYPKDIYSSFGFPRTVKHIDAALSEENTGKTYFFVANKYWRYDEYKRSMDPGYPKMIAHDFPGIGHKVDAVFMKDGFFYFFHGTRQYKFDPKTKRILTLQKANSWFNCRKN

Collagenase ColA = target: T2, Collagenase ColA (Bacteria, UniProt P43153); assay: Inhibition of bacterial Collagenase; design: species or system Hathewaya histolytica
T2 sequence (P43153 whole entry): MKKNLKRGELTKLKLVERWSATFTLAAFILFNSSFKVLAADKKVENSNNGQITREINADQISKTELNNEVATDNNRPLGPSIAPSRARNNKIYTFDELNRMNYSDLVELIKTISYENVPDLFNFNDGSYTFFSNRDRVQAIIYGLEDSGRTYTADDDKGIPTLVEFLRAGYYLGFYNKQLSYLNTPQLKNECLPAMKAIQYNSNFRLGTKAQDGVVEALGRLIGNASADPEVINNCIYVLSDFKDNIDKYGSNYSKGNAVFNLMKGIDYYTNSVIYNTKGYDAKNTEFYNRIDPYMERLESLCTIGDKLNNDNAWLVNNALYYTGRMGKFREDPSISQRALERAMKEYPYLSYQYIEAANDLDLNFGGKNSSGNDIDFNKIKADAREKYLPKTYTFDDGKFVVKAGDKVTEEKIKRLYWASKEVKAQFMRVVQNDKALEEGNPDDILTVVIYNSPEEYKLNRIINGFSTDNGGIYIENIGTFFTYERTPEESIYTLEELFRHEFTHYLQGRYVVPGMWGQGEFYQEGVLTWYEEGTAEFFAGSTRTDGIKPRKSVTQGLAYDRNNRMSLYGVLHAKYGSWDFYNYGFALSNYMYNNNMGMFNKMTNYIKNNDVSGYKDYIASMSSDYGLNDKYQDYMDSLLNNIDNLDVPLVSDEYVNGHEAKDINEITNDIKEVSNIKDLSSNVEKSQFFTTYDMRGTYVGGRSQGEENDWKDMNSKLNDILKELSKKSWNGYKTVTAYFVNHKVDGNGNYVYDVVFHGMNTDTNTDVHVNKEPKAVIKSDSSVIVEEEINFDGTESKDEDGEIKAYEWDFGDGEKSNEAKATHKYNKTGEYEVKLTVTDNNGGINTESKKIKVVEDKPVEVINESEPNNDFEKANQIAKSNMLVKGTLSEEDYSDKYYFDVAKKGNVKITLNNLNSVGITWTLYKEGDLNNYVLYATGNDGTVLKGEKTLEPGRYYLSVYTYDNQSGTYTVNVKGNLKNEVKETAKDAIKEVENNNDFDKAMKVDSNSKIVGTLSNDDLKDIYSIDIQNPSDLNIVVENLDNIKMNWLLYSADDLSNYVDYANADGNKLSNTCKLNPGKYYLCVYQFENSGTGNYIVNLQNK

Interstitial collagenase [2] = target: T1, Interstitial collagenase; assay: Inhibition of human skin fibroblast Collagenase at pH 7.5
[3] = target: T3, Angiotensin-converting enzyme (Oryctolagus cuniculus, UniProt P12822); assay: Inhibitory activity against Angiotensin I converting enzyme
T3 sequence (P12822 whole entry): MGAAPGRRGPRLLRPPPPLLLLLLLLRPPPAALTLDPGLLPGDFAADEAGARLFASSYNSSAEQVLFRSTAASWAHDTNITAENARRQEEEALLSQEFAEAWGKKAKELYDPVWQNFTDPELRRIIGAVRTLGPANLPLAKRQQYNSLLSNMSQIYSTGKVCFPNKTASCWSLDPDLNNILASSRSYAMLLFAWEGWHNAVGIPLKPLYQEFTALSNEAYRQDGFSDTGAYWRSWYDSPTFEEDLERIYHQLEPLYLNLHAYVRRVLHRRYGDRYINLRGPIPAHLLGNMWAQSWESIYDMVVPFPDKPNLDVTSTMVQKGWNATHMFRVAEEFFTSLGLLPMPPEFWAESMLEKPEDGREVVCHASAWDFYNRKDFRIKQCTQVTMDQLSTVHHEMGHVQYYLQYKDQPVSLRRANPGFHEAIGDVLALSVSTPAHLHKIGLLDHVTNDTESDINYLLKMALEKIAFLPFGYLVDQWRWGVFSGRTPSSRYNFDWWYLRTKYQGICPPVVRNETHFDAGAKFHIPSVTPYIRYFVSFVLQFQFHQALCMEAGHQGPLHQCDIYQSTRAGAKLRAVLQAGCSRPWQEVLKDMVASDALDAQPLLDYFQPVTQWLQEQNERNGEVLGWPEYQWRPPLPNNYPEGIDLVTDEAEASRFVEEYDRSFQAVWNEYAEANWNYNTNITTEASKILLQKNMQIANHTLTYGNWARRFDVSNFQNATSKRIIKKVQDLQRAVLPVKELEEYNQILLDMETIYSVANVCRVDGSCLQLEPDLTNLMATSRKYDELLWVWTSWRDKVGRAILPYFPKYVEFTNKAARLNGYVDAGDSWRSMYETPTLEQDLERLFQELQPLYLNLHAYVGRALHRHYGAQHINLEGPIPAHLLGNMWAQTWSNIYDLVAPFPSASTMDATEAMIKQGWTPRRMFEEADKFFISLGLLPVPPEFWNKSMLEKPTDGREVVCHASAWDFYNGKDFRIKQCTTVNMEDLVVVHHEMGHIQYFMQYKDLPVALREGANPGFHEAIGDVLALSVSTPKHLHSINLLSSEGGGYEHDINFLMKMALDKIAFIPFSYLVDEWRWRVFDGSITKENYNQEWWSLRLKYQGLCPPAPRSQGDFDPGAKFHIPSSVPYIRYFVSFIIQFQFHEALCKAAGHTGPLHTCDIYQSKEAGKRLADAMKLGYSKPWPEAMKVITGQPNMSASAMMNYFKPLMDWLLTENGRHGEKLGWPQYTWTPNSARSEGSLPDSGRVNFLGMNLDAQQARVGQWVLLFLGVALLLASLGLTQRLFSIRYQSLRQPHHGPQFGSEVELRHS

Structure (SMILES)	Ki (Interstitial collagenase [1])	other results
CCOP(=O)(O)N[C@H](C(=O)NC(Cc1ccc(OC)cc1)C(=O)NC)[C@@H](C)CC (some centres undefined)	31 µM	–
CCOP(=O)(O)N[C@H](C(=O)NC(Cc1c[nH]c2ccccc12)C(=O)NC)[C@@H](C)CC (some centres undefined)	1.5 µM	Ki (Collagenase ColA): > 5000 µM; Ki (Interstitial collagenase [2]): 0.9 µM
CCOP(=O)(O)N[C@H](C(=O)NC(Cc1ccc(OCc2ccccc2)cc1)C(=O)NC)[C@@H](C)CC (some centres undefined)	18 µM	–
CCOP(=O)(O)N[C@H](C(=O)NC(Cc1ccc(OCc2ccccc2)cc1)C(=O)NCC(=O)O)[C@@H](C)CC (some centres undefined)	6.7 µM	Ki [3]: 0.2 µM; Ki (Collagenase ColA): > 5 µM
CCOP(=O)(O)N[C@H](C(=O)N[C@@H](Cc1ccc(OCC(=O)NCc2ccccc2)cc1)C(=O)NCC(=O)O)[C@@H](C)CC	16 µM	–
CCOP(=O)(O)N[C@H](C(=O)N[C@@H](Cc1ccc(OCc2cc(Cl)cc(Cl)c2)cc1)C(=O)NCC(=O)O)[C@@H](C)CC	5.7 µM	Ki (Interstitial collagenase [2]): 13 µM
CCOP(=O)(O)N[C@H](C(=O)NC(Cc1ccc(OC2CCCCO2)cc1)C(=O)NCC(=O)O)[C@@H](C)CC (some centres undefined)	25 µM	–
CCOP(=O)(O)N[C@H](C(=O)N[C@@H](Cc1ccc(OCC(=O)O)cc1)C(=O)NCC(=O)O)[C@@H](C)CC	32 µM	–
CCOP(=O)(O)N[C@H](C(=O)N[C@@H](Cc1ccc(OCC(=O)N[C@@H](CCCCN)C(=O)O)cc1)C(=O)NCC(=O)O)[C@@H](C)CC	50 µM	–
CCOP(=O)(O)N[C@H](C(=O)N[C@@H](Cc1ccc(OCC(=O)N(Cc2ccccc2)Cc2ccccc2)cc1)C(=O)NCC(=O)O)[C@@H](C)CC	27 µM	–
CCOP(=O)(O)N[C@H](C(=O)N[C@@H](Cc1ccc(OCc2ccccc2)cc1)C(=O)N[C@@H](Cc1ccccc1)C(=O)O)[C@@H](C)CC	120 µM	–
CCOP(=O)(O)N[C@H](C(=O)N[C@@H](Cc1ccc(O)cc1)C(=O)NCC(=O)O)[C@@H](C)CC	22 µM	–
CCOP(=O)(O)N[C@H](C(=O)N[C@@H](Cc1c[nH]c2ccccc12)C(=O)NCC(=O)O)[C@@H](C)CC	13 µM	–
CCOP(=O)(O)N[C@H](C(=O)N[C@@H](C)C(=O)NCC(=O)O)[C@@H](C)CC	130 µM	Ki (Interstitial collagenase [2]): 147 µM
CCOP(=O)(O)N[C@@H](CC(C)C)C(=O)N[C@@H](C)C(=O)NCC(=O)O	140 µM	–
CCOP(=O)(O)N[C@H](C(=O)N[C@@H](CC(C)C)C(=O)NCC(=O)O)[C@@H](C)CC	49 µM	–
CCOP(=O)(O)N[C@H](C(=O)N[C@@H](C)C(=O)NCC(=O)N[C@@H](CC(C)C)C(=O)O)[C@@H](C)CC	240 µM	–
CCOP(=O)(O)N[C@H](C(=O)N[C@@H](Cc1ccccc1)C(=O)NCC(=O)O)[C@@H](C)CC	29 µM	–
CCOP(=O)(O)N[C@H](C(=O)N[C@@H](Cc1ccc(N)cc1)C(=O)NCC(=O)O)[C@@H](C)CC	19 µM	–
CCOP(=O)(O)N[C@H](C(=O)N[C@@H](C)C(=O)NCC(=O)N[C@@H](CCC(=O)O)C(=O)N[C@@H](CCCN=C(N)N)C(=O)NCC(=O)O)[C@@H](C)CC (X1-AGERG-OH)	403 µM	–
CCOP(=O)(O)N[C@H](C(=O)N[C@@H](C)C(=O)NCC(=O)N[C@@H](CCC(=O)O)C(=O)N[C@@H](CCCNC(=N)N[N+](=O)[O-])C(=O)NCC(=O)O)[C@@H](C)CC (X1-AGE[Arg(NO2)]G-OH)	270 µM	–
CCOP(=O)(O)N[C@H](C(=O)N[C@@H](C)C(=O)NCC(=O)N[C@@H](CCC(N)=O)C(=O)N[C@@H](CCCNC(=N)N)C(=O)NCC(=O)O)[C@@H](C)CC (X1-AGQRG-OH)	460 µM	–
CCOP(=O)(O)N[C@H](C(=O)N[C@@H](C)C(=O)NCC(=O)N[C@@H](CCC(N)=O)C(=O)N[C@@H](CCCNC(=N)N[N+](=O)[O-])C(=O)O)[C@@H](C)CC (X1-AGQ[Arg(NO2)]-OH)	1900 µM	–
